Test results published in US10351578B2, “Heterocyclic-substituted pyridinopyrimidinone derivative as CDK inhibitor and use thereof” (Shanghai Xunhe Pharmaceutical Technology Co. Ltd., priority 2016, dated 2019).

Experiments:
[1] = molecular target: T1, CDK4 protein kinase (GST-CDK4(1-303 end)) (Homo sapiens, UniProt P11802); experiment: CDK4 protein kinase activity, Caliper mobility shift assay; assay type: biochemical; settings: substrate Peptide FAM-P8, 28° C. for 3 h
T1 construct: GST-CDK4(1-303 end); GST (N)
Protocol: (§1) Activity Assay: The CDK4 protein kinase activity was measured using the Caliper mobility shift assay (see J. Biomol. Screen, 2009, PP31). The test compound was dissolved in DMSO and diluted with a kinase buffer solution (20 mM HEPES-pH 7.5, 0.01% Triton X-100, 10 mM MgCl2, 2 mM DTT) and 5 μL of the compound at 5-fold final concentration of reaction dissolved in 10% DMSO was added in a 384-well plate. The compound-free control well was 5 μL of 10% DMSO, and the no-activity control well was 5 μL of kinase buffer. 10 μL of a 2.5-fold diluted CDK4 enzyme solution (GST-CDK4(1-303 end)) was added and incubated at room temperature for 10 min, and then 10 μL of the 2.5-fold diluted substrate solution Peptide FAM-P8 was added. The reaction was stopped by adding 25 μL of stop solution after incubation at 28° C. for 3 h, and the conversion rate data was read on a Caliper EZ Reader II (Caliper Life Sciences) and the conversion rate was converted to inhibition rate data according to above method. Among them, the inhibition rate %=(max−conversion)/(max−min)×100%.

[2] = molecular target: T2, CDK6 protein kinase (GST-CDK6(1-326 end)) (Homo sapiens, UniProt Q00534); experiment: CDK6 protein kinase activity, Caliper mobility shift assay; assay type: biochemical; settings: substrate Peptide FAM-P8, 28° C. for 3 h
T2 construct: GST-CDK6(1-326 end); GST (N)
Protocol: as §1, with “CDK6” for “CDK4”, “(GST-CDK6(1-326” for “(GST-CDK4(1-303”

T1 sequence (P11802 whole entry): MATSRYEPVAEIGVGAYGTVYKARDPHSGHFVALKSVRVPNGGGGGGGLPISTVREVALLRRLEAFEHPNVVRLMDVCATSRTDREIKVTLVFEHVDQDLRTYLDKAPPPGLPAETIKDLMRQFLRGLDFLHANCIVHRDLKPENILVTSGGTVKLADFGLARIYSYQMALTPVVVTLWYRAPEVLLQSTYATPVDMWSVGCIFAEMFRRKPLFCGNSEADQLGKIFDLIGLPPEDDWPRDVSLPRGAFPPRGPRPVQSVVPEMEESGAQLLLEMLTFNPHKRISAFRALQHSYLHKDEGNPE
T1 sequence (P30281 whole entry partner): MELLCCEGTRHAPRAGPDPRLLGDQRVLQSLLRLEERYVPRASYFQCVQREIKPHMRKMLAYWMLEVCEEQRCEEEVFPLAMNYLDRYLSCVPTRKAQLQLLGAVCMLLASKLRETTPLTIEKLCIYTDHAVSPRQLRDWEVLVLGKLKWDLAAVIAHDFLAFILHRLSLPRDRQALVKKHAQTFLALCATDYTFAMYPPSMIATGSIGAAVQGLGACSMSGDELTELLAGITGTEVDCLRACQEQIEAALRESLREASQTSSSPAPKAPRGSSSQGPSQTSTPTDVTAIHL
T2 sequence (Q00534 whole entry): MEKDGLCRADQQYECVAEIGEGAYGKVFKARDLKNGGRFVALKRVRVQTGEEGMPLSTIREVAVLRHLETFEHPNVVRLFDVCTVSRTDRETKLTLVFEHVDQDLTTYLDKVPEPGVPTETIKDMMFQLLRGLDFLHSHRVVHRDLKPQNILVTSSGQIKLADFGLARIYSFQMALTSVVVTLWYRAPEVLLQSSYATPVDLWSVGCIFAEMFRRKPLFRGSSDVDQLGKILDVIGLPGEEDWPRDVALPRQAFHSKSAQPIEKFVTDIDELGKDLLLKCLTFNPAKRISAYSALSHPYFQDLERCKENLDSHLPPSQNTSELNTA
T2 sequence (P30281 whole entry partner): as the sequence (P30281 whole entry partner) above

IC50 [1]	IC50 [2]	Structure (SMILES)
≤ 20 nM	≤ 20 nM	NC(=O)C1Oc2cnc(Nc3ccc(N4CCNCC4)cn3)nc2N(C2CCCC2)C1=O (stereo not drawn) [Compound I-34, 6-carboxamide-8-cyclopentyl-2-(5-(1-piperazinyl)-pyridin-2-amino)-6H-pyrimido[5,4-b][1,4]oxazin-7(8H)-one]
20 to 100 nM	20 to 100 nM	CC1(C)Oc2cnc(Nc3ccc(N4CCNCC4)cn3)nc2N(c2ccccc2)C1=O [Compound I-35, 6,6-dimethyl-8-phenyl-2-(5-(1-piperazinyl)-pyridin-2-amino)-6H-pyrimido[5,4-b][1,4]oxazin-7(8H)-one]
≤ 20 nM	≤ 20 nM	CC1(C)Oc2cnc(Nc3ccc(N4CCNCC4)cn3)nc2N(c2ccc(Cl)cc2)C1=O [Compound I-36, 6,6-dimethyl-8-(4-chlorophenyl)-2-(5-(1-piperazinyl)-pyridin-2-amino)-6H-pyrimido[5,4-b][1,4]oxazin-7(8H)-one]
≤ 20 nM	20 to 100 nM	CCC(CC)N1C(=O)C(C)(C)Oc2cnc(Nc3ccc(N4CCNCC4)cn3)nc21 [Compound I-37, 6,6-dimethyl-8-(3-pentyl)-2-(5-(1-piperazinyl)-pyridin-2-amino)-6H-pyrimido[5,4-b][1,4]oxazin-7(8H)-one]
≤ 20 nM	20 to 100 nM	CCC(CC)N1C(=O)C(C)(C)Oc2cnc(Nc3ccc(CN4CCN(CC)CC4)cn3)nc21 [Compound I-38, 6,6-dimethyl-8-(3-pentyl)-2-(5-(4-ethyl-1-piperazinyl)methyl-pyridine-2-amino)-6H-pyrimido[5,4-b][1,4]oxazin-7(8H)-one]

Further lines, the compound ahead of its results:

Structure (SMILES)	IC50 [1]	IC50 [2]
CCN1CCN(Cc2ccc(Nc3ncc4c(n3)N(C3CCCC3)C(=O)C(C#N)O4)nc2)CC1 (stereo not drawn) [Compound I-27, 6-cyano-8-cyclopentyl-2-(5-(4-ethyl-1-piperazinyl)methyl-pyridin-2-amino)-6H-pyrimido[5,4-b][1,4]oxazin-7(8H)-one]	≤ 20 nM	≤ 20 nM
CCN1CCN(Cc2ccc(Nc3ncc4c(n3)N(C3CCCC3)C(=O)C3(CCC3)O4)nc2)CC1 [Compound I-28]	≤ 20 nM	20 to 100 nM
CC1(C)Oc2cnc(Nc3ccc(N4CCNCC4)cn3)nc2N(c2cccs2)C1=O [Compound I-29, 6,6-dimethyl-8-(2-thienyl)-2-(5-(1-piperazinyl)-pyridin-2-amino)-6H-pyrimido[5,4-b][1,4]oxazin-7(8H)-one]	≤ 20 nM	≤ 20 nM
CCN1CCN(Cc2ccc(Nc3ncc4c(n3)N(c3ccccn3)C(=O)C(C)(C)O4)nc2)CC1 [Compound I-30, 6,6-dimethyl-8-(2-pyridyl)-2-(5-(4-ethyl-1-piperazinyl)methyl-pyridine-2-amino)-6H-pyrimido[5,4-b][1,4]oxazin-7(8H)-one]	≤ 20 nM	20 to 100 nM
CCN1CCN(Cc2ccc(Nc3ncc4c(n3)N(c3ncccn3)C(=O)C(C)(C)O4)nc2)CC1 [Compound I-31, 6,6-dimethyl-8-(2-pyrimidinyl)-2-(5-(4-ethyl-1-piperazinyl)methyl-pyridine-2-amino)-6H-pyrimido[5,4-b][1,4]oxazin-7(8H)-one]	≤ 20 nM	≤ 20 nM
CC1(C)Oc2cnc(Nc3ccc(N4CCNCC4)cn3)nc2N(c2ccco2)C1=O [Compound I-32]	≤ 20 nM	> 500 nM
CN(C)C(=O)C1Oc2cnc(Nc3ccc(N4CCNCC4)cn3)nc2N(C2CCCC2)C1=O (stereo not drawn) [Compound I-33, N,N-dimethyl-6-carboxamide-8-cyclopentyl-2-(5-(1-piperazinyl)-pyridin-2-amino)-6H-pyrimido[5,4-b][1,4]oxazin-7(8H)-one]	≤ 20 nM	≤ 20 nM
